Laboratory results as given in patent US20250304644A1, “PEPTIDES TRIPLE AGONISTS OF GIP, GLP-1 AND GLP-2” (BAINAN BIOTECH APS, priority 2021, published 2025).
Several values for one entry are separate records, joined by “and”; a condition that tells them apart may be missing. Equal values may be shown once. Read-outs that look alike come from different tables or passages of the source. *1 amine or outer side, *2 acyl side, *3 side chain or, on linkers, in order; H or OH if unused. Where no end group is shown, it is not given here. Side-chain parts run from the residue outwards. The star is where a group is joined. C18 diacid = O=C(O)CCCCCCCCCCCCCCCCC(=O)*; γGlu = O=C(O)[C@H](CCC(=O)[*:2])N[*:1]; AEEA = NCCOCCOCC(=O)O

Key:
Assay type in all cases: cell-based
human SNAP-tagged GIPR = target: T1, human SNAP-tagged GIPR (Homo sapiens, UniProt P48546); assay: Receptor internalization assay, HEK293A cells expressing human SNAP-tagged GIPR
T1 construct: host or cells: HEK293A
T1 sequence (P48546 22-466): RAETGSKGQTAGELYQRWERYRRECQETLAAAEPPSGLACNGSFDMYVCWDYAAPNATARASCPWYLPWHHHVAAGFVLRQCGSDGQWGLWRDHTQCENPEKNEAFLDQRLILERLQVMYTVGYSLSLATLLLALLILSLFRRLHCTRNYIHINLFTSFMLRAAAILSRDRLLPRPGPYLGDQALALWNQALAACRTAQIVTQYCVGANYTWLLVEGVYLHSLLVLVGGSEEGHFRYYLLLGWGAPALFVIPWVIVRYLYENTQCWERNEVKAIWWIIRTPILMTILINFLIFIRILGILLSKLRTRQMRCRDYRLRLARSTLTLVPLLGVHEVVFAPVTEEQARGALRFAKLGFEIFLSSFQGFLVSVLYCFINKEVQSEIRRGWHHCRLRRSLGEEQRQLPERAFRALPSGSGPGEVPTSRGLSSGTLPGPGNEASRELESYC

human GLP-1R = target: T2, human GLP-1R (Homo sapiens, UniProt P43220); assay: cAMP assay (HitHunter) in transiently transfected COS-7 cells expressing human GLP-1R
T2 construct: host or cells: COS-7
T2 sequence (P43220 24-463): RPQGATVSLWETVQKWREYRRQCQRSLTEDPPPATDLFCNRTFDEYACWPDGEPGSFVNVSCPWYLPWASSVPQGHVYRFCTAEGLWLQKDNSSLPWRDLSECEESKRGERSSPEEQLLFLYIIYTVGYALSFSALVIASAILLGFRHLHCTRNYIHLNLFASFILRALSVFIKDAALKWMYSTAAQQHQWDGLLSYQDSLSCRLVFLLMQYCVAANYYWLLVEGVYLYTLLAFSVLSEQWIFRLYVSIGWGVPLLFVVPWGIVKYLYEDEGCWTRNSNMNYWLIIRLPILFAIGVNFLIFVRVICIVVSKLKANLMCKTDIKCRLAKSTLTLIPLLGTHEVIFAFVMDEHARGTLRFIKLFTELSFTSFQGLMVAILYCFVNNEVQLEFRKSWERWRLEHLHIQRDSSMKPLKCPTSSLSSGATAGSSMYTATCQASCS

human SNP-tagged GLP-2R = target: T3, human SNP-tagged GLP-2R (Homo sapiens, UniProt O95838); assay: Receptor internalization assay, HEK293A cells expressing human SNAP-tagged GLP-2R; conditions: for Absolute hGLP-2R internalization (AUC): AUC of sigmoid curves up to 1 μM, 60 minutes at 37° C.; for Relative hGLP-2R internalization (%): relative to native ligand = 100
T3 construct: expressed in transfected cells; host or cells: HEK293A
T3 sequence (O95838 1-553): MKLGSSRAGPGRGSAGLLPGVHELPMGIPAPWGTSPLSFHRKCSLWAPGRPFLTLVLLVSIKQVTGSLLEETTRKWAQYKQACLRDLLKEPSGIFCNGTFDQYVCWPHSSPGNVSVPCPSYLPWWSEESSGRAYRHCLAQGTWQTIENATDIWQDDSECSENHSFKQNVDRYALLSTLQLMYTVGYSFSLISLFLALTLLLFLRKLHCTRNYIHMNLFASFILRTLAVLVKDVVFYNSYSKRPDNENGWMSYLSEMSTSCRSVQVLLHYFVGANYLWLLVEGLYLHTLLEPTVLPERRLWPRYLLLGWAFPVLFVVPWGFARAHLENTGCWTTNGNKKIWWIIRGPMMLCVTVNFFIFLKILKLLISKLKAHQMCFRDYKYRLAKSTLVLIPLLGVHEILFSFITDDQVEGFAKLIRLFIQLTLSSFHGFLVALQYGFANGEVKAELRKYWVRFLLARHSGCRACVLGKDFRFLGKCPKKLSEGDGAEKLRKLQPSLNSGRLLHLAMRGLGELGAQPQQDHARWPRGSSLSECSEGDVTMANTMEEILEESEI

human SNAP-tagged GLP-1R = target: T4, human SNAP-tagged GLP-1R (Homo sapiens, UniProt P43220); assay: Receptor internalization assay, HEK293A cells expressing human SNAP-tagged GLP-1R; conditions: for Absolute hGLP-1R internalization (AUC): AUC of sigmoid curves up to 1 μM, 60 minutes at 37° C.; for Relative hGLP-1R internalization (%): relative to hGLP-1 = 100
T4 construct: expressed in transfected cells; host or cells: HEK293A
T4 sequence (P43220 24-463): as the sequence (P43220 24-463) above

[1] = target: human glucagon receptor (GCGR) (Homo sapiens, UniProt P47871); assay: Gs activation measured as cAMP accumulation on human glucagon receptor (FIG. 1 radar plot); conditions: read-out: −p Log EC50 on human glucagon receptor (GCGR) (converted)
Sequence of human glucagon receptor (GCGR) (P47871 26-477): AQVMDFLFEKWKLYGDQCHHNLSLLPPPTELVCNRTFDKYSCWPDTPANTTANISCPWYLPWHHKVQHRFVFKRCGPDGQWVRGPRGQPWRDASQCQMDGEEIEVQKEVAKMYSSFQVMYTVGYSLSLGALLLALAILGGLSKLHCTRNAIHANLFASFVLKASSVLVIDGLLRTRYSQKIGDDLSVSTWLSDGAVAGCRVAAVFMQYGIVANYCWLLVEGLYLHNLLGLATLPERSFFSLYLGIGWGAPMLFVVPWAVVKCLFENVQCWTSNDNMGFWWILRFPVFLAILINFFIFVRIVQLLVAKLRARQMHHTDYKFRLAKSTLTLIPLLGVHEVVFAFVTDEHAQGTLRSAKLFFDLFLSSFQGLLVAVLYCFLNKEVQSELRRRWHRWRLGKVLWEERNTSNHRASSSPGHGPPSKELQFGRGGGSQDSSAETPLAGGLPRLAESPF
Description: Here, the compounds 20, 21, 22, 28, 30, 31,32, 33, 34, 35 are shown in terms of their potencies in Gs activation, measured as CAMP accumulation, depicted in a radar plot. The numbers refer to −p Log EC50 values. […] The outer rings correspond to higher potencies, the inner rings correspond to lower potencies.

human GLP-2R = target: T5, human GLP-2R (Homo sapiens, UniProt O95838); assay: cAMP assay (HitHunter) in transiently transfected COS-7 cells expressing human GLP-2R
T5 construct: host or cells: COS-7
T5 sequence (O95838 1-553): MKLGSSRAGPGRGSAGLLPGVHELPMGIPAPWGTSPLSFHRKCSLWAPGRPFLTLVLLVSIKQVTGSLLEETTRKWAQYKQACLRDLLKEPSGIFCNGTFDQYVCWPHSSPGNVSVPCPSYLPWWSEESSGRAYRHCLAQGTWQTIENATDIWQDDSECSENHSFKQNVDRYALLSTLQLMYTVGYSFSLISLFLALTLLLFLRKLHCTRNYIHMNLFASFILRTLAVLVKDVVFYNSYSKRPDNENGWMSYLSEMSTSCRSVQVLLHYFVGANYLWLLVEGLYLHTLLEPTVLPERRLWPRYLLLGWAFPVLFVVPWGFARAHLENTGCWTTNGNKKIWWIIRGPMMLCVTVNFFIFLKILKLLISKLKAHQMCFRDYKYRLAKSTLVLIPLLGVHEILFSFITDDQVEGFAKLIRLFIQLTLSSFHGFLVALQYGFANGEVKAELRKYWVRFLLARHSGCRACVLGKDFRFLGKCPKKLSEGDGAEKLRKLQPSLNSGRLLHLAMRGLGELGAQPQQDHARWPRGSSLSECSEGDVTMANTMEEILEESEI

human GIPR = target: T6, human GIPR (Homo sapiens, UniProt P48546); assay: cAMP assay (HitHunter) in transiently transfected COS-7 cells expressing human GIPR
T6 construct: host or cells: COS-7
T6 sequence (P48546 22-466): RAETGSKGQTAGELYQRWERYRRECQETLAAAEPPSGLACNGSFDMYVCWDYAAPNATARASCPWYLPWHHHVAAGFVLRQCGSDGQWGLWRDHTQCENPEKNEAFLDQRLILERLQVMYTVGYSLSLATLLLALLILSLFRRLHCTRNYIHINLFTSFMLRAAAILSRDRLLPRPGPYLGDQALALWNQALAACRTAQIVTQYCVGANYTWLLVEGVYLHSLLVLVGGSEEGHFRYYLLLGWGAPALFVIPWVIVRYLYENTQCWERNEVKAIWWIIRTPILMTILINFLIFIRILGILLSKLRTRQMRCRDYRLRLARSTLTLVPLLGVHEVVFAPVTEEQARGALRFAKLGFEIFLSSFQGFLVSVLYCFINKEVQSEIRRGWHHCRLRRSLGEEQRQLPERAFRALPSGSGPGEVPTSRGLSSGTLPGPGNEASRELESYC

[2] = COS-7, read-out: Efficacy GLP-1R (Emax)
[3] = COS-7, read-out: Efficacy GLP-2R (Emax)
[4] = COS-7, read-out: Efficacy GIPR (Emax)

Molecule | Absolute hGIPR internalization (AUC) (human SNAP-tagged GIPR) | Relative hGIPR internalization (%) (human SNAP-tagged GIPR) | Emax (human GLP-1R; [2]) | Absolute hGLP-2R internalization (AUC) (human SNP-tagged GLP-2R) | Relative hGLP-2R internalization (%) (human SNP-tagged GLP-2R) | Absolute hGLP-1R internalization (AUC) (human SNAP-tagged GLP-1R) | Relative hGLP-1R internalization (%) (human SNAP-tagged GLP-1R) | EC50 [1] | Emax (human GLP-2R; [3]) | Emax (human GIPR; [4]) | also measured
CC[C@H](C)[C@H](NC(=O)[C@H](Cc1ccccc1)NC(=O)[C@H](CC(=O)O)NC(=O)[C@H](CCCNC(=N)N)NC(=O)[C@H](C)NC(=O)[C@H](C)NC(=O)[C@H](CC(C)C)NC(=O)[C@H](CC(N)=O)NC(=O)[C@H](CC(=O)O)NC(=O)[C@H](CC(C)C)NC(=O)[C@@H](NC(=O)[C@@H](NC(=O)[C@H](CO)NC(=O)[C@H](Cc1ccc(O)cc1)NC(=O)[C@H](CC(=O)O)NC(=O)[C@H](CO)NC(=O)[C@@H](NC(=O)[C@H](Cc1ccccc1)NC(=O)[C@@H](NC(=O)CNC(=O)[C@H](CC(=O)O)NC(=O)[C@H](C)NC(=O)[C@@H](N)Cc1c[nH]cn1)[C@@H](C)O)[C@@H](C)CC)[C@@H](C)O)[C@@H](C)CC)C(=O)N[C@@H](CC(N)=O)C(=O)N[C@@H](Cc1c[nH]c2ccccc12)C(=O)N[C@@H](CC(C)C)C(=O)N[C@H](C(=O)N[C@@H](CCC(N)=O)C(=O)N[C@H](C(=O)N[C@@H](CCCCN)C(=O)NCC(=O)N[C@@H](CCCCN)C(=O)N[C@@H](CCCCNC(=O)COCCOCCNC(=O)COCCOCCNC(=O)CC[C@H](NC(=O)CCCCCCCCCCCCCCCCC(=O)O)C(=O)O)C(=O)O)[C@@H](C)O)[C@@H](C)CC [Compound 33] | 15.8 | 43% | 99% | 6.4 | 13.2% | 6.4 | 7.7% | > 100000 pM | 90% | 88% | 
HADGTFTSDYSTILDK([AEEA-AEEA-γGlu-C18 diacid])LAARDFINWLIQTKGKKNDWKHNITQ-OH [Compound 21] |  |  |  | 36.3 | 74.6% | 94.7 | 112.59% | > 100000 pM |  |  | Absolute hGIPR internalization (AUC) (human SNAP-tagged GIPR; AUC of sigmoid curves up to 1 μM, 60 minutes at 37° C.): 10.2; GIPR internalization (in words) (human SNAP-tagged GIPR; compared to native GIP): reduced internalization compared to native GIP; Relative hGIPR internalization (%) (human SNAP-tagged GIPR; relative to hGIP 1-42 = 100): 28%; Emax (human GLP-1R; COS-7, normalized to highest concentration of the endogenous ligand, read-out: Efficacy GLP-1R (Emax)): 122%; EC50 (human GLP-1R; cAMP, COS-7 cells, human GLP-1R, read-out: EC50 (nM) GLP-1R): 0.05 nM; GLP-2R internalization (in words) (human SNP-tagged GLP-2R; compared to native GLP-2): comparable to native GLP-1 and GLP-2; GLP-1R internalization (in words) (human SNAP-tagged GLP-1R; compared to native GLP-1): comparable to native GLP-1 and GLP-2; Emax (human GLP-2R; COS-7, normalized to highest concentration of the endogenous ligand, read-out: Efficacy GLP-2R (Emax)): 104%; EC50 (human GLP-2R; cAMP, COS-7 cells, human GLP-2R, read-out: EC50 (nM) GLP-2R): 0.6 nM; Emax (human GIPR; COS-7, normalized to highest concentration of the endogenous ligand, read-out: Efficacy GIPR (Emax)): 104%; EC50 (human GIPR; cAMP, COS-7 cells, human GIPR): 0.398 nM
CC[C@H](C)[C@H](NC(=O)[C@H](Cc1ccccc1)NC(=O)[C@H](CC(=O)O)NC(=O)[C@H](CCCNC(=N)N)NC(=O)[C@H](C)NC(=O)[C@H](C)NC(=O)[C@H](CC(C)C)NC(=O)[C@H](CC(N)=O)NC(=O)[C@H](CC(=O)O)NC(=O)[C@H](CC(C)C)NC(=O)C(C)(C)NC(=O)[C@@H](NC(=O)[C@H](CO)NC(=O)[C@H](Cc1ccc(O)cc1)NC(=O)[C@H](CC(=O)O)NC(=O)[C@H](CO)NC(=O)[C@@H](NC(=O)[C@H](Cc1ccccc1)NC(=O)[C@@H](NC(=O)CNC(=O)[C@H](CC(=O)O)NC(=O)[C@H](C)NC(=O)[C@@H](N)Cc1c[nH]cn1)[C@@H](C)O)[C@@H](C)CC)[C@@H](C)O)C(=O)N[C@@H](CC(N)=O)C(=O)N[C@@H](Cc1c[nH]c2ccccc12)C(=O)N[C@@H](CC(C)C)C(=O)N[C@H](C(=O)N[C@@H](CCC(N)=O)C(=O)N[C@H](C(=O)N[C@@H](CCCCN)C(=O)NCC(=O)N[C@@H](CCCCN)C(=O)N[C@@H](CCCCN)C(=O)N[C@@H](CCCCNC(=O)COCCOCCNC(=O)COCCOCCNC(=O)CC[C@H](NC(=O)CCCCCCCCCCCCCCCCC(=O)O)C(=O)O)C(=O)O)[C@@H](C)O)[C@@H](C)CC [Compound 35] | 14.3 | 39% and 38% | 92% | 7.6 | 15.7% | 2.0 | 2.4% | > 100000 pM | 93% | 99% | 
